Reference: patent US20190390245A1, “CYTOTOXICITY TEST METHOD FOR MEDICAL DEVICE” (ALCON INC., priority 2018, published 2019)
Like-named read-outs stand apart in the source and are kept apart here.

Experiments:
L929 cells [1] = test: Two layer embedded modified agar overlay cytotoxicity test
Protocol: The test article meets the ‘pass’ criteria of the test if the biological response is less than or equal to grade 2 (mild).
1×MEMAOM was used as the nutrient supplement agar at 2 mL/well.
B) Two layer embedded modified agar overlay. The test materials were added after the base nutrient agar solidified, and 2.0 mL of L929 (1.8×10^6 cells/mL) cell agar mixture described above was added on top of the test materials to fully cover the test materials with a final cell concentration of 3.6×10^6 cells/well. After 24 hours of incubation, cells were examined as described in ISO/USP agar overlay method.
C) For the extended study duration, cells were prepared as described in A) and B). Reference material A and no treatment were evaluated for up to 72-hour incubation.
D) two layer modified and embedded modified agar overlay for liquid materials. Paper filter discs (100 μL of either 100% Ethanol or 2000 ppm BAK) were prepared as described in A) and B).

L929 cells [2] = conditions: concentration known to be toxic to the rabbit eyes; Bruinink and Luginbuehl, 2012; cited from earlier work
L929 cells [3] = test: ISO/USP (traditional) agar overlay cytotoxicity test; format: cell-based, Mouse
Protocol: The ISO 10993-5 (2009) qualitative agar diffusion/overlay assay is appropriate for high density materials and liquids. This assay is conducted by adding a thin layer of nutrient-supplemented agar over the near confluent monolayer of L929 cells, and the test material (a solid sample, or an extract of the test material or liquid placed on filter paper) is placed on top of the agar layer. The cushioning effect of an agar layer protects the L929 cells from the potential mechanical damage by the test material's movement. Cells are examined after 24-hours incubation for signs of toxicity and stained with neutral red dye to differentiate between the viable, stressed or lysed cells. Cytotoxic leachates diffuse into the cell layer through the agar, and toxicity is indicated by a loss of viable cells around the test device as evidenced by area devoid of stain under and around the test material. The disadvantage of agar overlay assay is that potential cytotoxic leachates may bind to the agar and not be able to diffuse across the plate as compared to the liquid medium; thus, the cells are not fully exposed to the test substance.

CCO [Ethanol, ethanol]
Color zone formation (observation), Two layer embedded Modified Agar Overlay (L929 cells [1]; Table 4, liquids, 100 μL on paper filter): no zone

Benzalkonium Chloride [BAK]
Cytotoxicity responses, traditional agar overlay method (previous observations) (L929 cells [2]): failed to show cytotoxicity responses | Color zone formation (observation), Two layer embedded Modified Agar Overlay (L929 cells [1]): no zone | Grade, color zone formation, ISO/USP Agar Overlay (L929 cells [3]): Grade 0
